The numbers were not newly measured in patent US10647965B2, “Hetero-transglycosylase and uses thereof” (BASF SE, priority 2013, dated 2020), which cites them from elsewhere.

In the data set the test system is XTHs (xyloglucan endotransglucosylases). As to conditions: read-out: KM for XXXGol, comparison value, donor not stated.

On to `OC[C@@H](O)[C@@H](O[C@@H]1O[C@H](CO[C@H]2OC[C@@H](O)[C@H](O)[C@H]2O)[C@@H](O[C@@H]2O[C@H](CO[C@H]3OC[C@@H](O)[C@H](O)[C@H]3O)[C@@H](O[C@@H]3O[C@H](CO[C@H]4OC[C@@H](O)[C@H](O)[C@H]4O)[C@@H](O)[C@H](O)[C@H]3O)[C@H](O)[C@H]2O)[C@H](O)[C@H]1O)[C@H](O)[C@@H](O)CO` [XXXGol, Xyl3.Glc3.glucitol], for which the Km was 50 to 200 µM.

In general, Km refers to the substrate concentration at which the rate is half of its maximum.
